Data on three molecules can be found in patent publication US20260034173A1, “USE OF MANGANESE-CONTAINING COMPOUND IN REDUCING LEVEL OF URIC ACID OF MAMMALIAN SUBJECT” (Shanghai Shiqu Pharmaceutical Technology Co., Ltd., priority 2022, published 2026).

In test [1] the test system is oteracil potassium and adenine induced hyperuricemia model mice. Kind of test: Oteracil potassium and adenine induced hyperuricemia model mice. The class given is in vivo, KM mice. As to conditions: day 6; allopurinol 50 mg/L drinking water, febuxostat 5 mg/kg/day gavage, manganese oxides 1.16 w/w % in diet. An excerpt: Oteracil potassium and adenine are known to be model drugs capable of inducing hyperuricemia in mice. Specifically, oteracil potassium is a urate oxidase inhibitor that can inhibit further metabolism of uric acid in mice, thereby increasing the concentration of uric acid in the blood of mice; adenine can damage the kidneys, thereby reducing the excretion of uric acid from the kidneys of mice. […] Six days after the beginning of the experiment, 24-hour urine of each group of mice was collected and uric acid content in the urine was detected by the uric acid assay kit to investigate the effects of various experimental substances on the amount of uric acid excreted in the urine of mice.
The control group was fed with basic mouse diet the first day (i.e. the day of the experiment) to the seventh day after the start of the experiment, and the other groups were fed with modeling mouse diet (4.4 w/w % oteracil potassium and 0.44 w/w % adenine were added into the basic mouse diet) for inducing hyperuricemia. […] The uric acid level in urine was measured using a uric acid assay kit (Solarbio, Beijing, China), and the amount of uric acid excreted through urine in 24 hours was calculated based on the urine volume.

Test [2] concerns oteracil potassium and hypoxanthine induced hyperuricemia model mice. Kind of test: Oteracil potassium and hypoxanthine induced hyperuricemia model mice. The class given is in vivo, C57BL/6J mice. As to conditions: day 8; benzbromarone 10 mg/kg gavage, allopurinol 50 mg/L drinking water, manganese oxides 1.14 w/w % in diet. On the procedure: Hypoxanthine can be metabolized into uric acid in the body, so it can also be used in combination with oteracil potassium as a model drug for inducing hyperuricemia in mice. In this example, the healthy mice were randomly divided into 7 groups, the mouse hyperuricemia model was established by administering oteracil potassium and hypoxanthine (they were injected intraperitoneally together) to 6 groups of mice, and 1 group of healthy mice injected intraperitoneally with normal saline was taken as the blank control group. The mice of the experimental groups were given the corresponding experimental substances according to the dosing regimen described in the following experimental method.
From the first day (i.e. the day of the experiment) to the eighth day after the start of the experiment, the blank control group was intraperitoneally injected with normal saline at 9:00 a.m. and 5:00 p.m. every day, and the remaining groups were intraperitoneally injected with modeling solution (100 mg/kg hypoxanthine+100 mg/kg oteracil potassium) at 9:00 am, and 5:00 p.m. every day. The benzbromarone group was administered with benzbromarone solution (10 mg/kg) by gavage at 10 am every day. […]

The test system of test [3] is urate oxidase knockout (UOX KO) mice. The test can be described thus: Experiment on urate oxidase knockout (UOX KO) mice. It counts as in vivo. The note with it: gavage daily; blood and 24-hour urine. An excerpt:
Urate oxidase knockout (UOX KO) mice aged 6 to 8 weeks were selected, and urine and blood were collected after one week of acclimation to test urine uric acid and blood uric acid levels. […] Mice were gavaged with corresponding drugs daily. After the start of drug administration, the blood of mice was collected every other week to prepare serum, and 24-hour urine was collected to detect the uric acid content in the urine using a uric acid assay kit.

SMILES strings stand for the structures.

Regarding `Oc1ncnc2[nH]ncc12` [allopurinol], the “amount of uric acid excreted in the urine within 24 hours (FIG. 20)” value in test [1] is “at a high level”. Also, the “serum uric acid level (FIG. 22)” value in test [2] is reported as “significantly reduced”. Also, in test [3], the “reduction of uric acid in UOX KO mice” value was “effective in reducing uric acid”.
In the case of `CCc1oc2ccccc2c1C(=O)c1cc(Br)c(O)c(Br)c1` [benzbromarone], the “serum uric acid level (FIG. 22)” value in test [2] is reported as “significantly reduced”.
Regarding `Cc1nc(-c2ccc(OCC(C)C)c(C#N)c2)sc1C(=O)O` [febuxostat], the “amount of uric acid excreted in the urine within 24 hours (FIG. 20)” value in test [1] is “at a high level”.
